Several values for one entry are separate records, joined by “and”; a condition that tells them apart may be missing. Identical values can stand only once. Like-named read-outs stand apart in the source and are kept apart here.

The source of these data is patent publication US7586008B2, “Propofol analogs, process for their preparation, and methods of use” (Abraxis Bioscience, Inc., priority 2003, dated 2009).

Series [1] has as its system GABAA agonist site. To be noted: propofol at 10^-4 M, 3H-GABA. The method, then: (§1) The propofol binding site on GABAA was defined using a series of competitive binding assays. Frozen bovine hippocampus was thawed and homogenized in 40 volumes of ice-cold 0.32 M sucrose. The suspension was centrifuged at 1000×g for 10 minutes at 4° C. The pellet was washed twice in assay buffer and reacted with radioactive ligand in presence or absence of propofol at 10−4 M final concentration. The amount of radioactivity remained on the Whatman filter following filtration of the reaction mix and two washes with assay buffer was determined using a liquid scintillation counter. Inhibition of radioactive ligand binding by propofol represents the competitive binding of propofol to the same site as the radioactive ligand. GABAA agonist site, GABAA α-1 site, GABAA α-5 site, GABAA α-6 site, and GABAA Cl channel were assayed using ^3H-GABA, ^3H-Flunitrazepam, ^3H-RY80, ^3H-Ro 15-4513, and ^3H-TBOB.

Series [2] has as its system GABAA alpha 2 site. Conditions: propofol at 10^-4 M. The method, then:
as §1

For series [3], the system named is GABAA α-1 site. To be noted: propofol at 10^-4 M, 3H-Flunitrazepam. Here is the method:
as §1

The subject of series [4] is GABAA α-6 site. To be noted: propofol at 10^-4 M, 3H-Ro 15-4513. Here is the method: as §1
Series [5] concerns the target GABAA Cl channel. Nature of the series: Competitive binding assay, GABAA Cl channel (3H-TBOB), bovine hippocampus. Conditions: for Percent Inhibition, chloride channel: propofol at 10^-4 M. Here is the method: as §1
(§2) To determine the binding constant (KD) of propofol and its analogs for GABAA Cl channel, binding was determined as in Example 25 in presence of increasing concentration of propofol and the KD determined graphically using the Hill plots. In vivo hypnotic activity was determined as follows. Drugs solubilized in DMSO were administered to rats by tail vein injection (N=5 rats per group). A dose level of 28 μmol/kg (5 mg/kg for propofol) was used to compensate for differences in molecular weight of the analogs. Anesthetic activity in vivo was determined as time to recovery of righting reflex following administration of the compounds.

The test system of series [6] is rats. Put plainly: In vivo hypnotic/anesthetic activity, time to recovery of righting reflex. To be noted: rat. More on the design: species or system rat. The method, then: as §2
(§3) Dose escalation experiment was performed in rat in order to compare the toxicity and the pharmacodynamic of CT8 against propofol. Drugs solubilized in DMSO were administered to rats (5 rats per group). Anesthetic activity in vivo was determined as time to recovery of righting reflex. Mortality was also monitored and the LD50 curves for propofol and CT8 constructed. In order to adjust for the differences in molecular weight between the two compounds, μmol/kg dose was used.

Series [7] has as its system rats. Nature of the series: Dose escalation toxicity, mortality and LD curves. Conditions: rat. The method, then:
as §3

For series [8] the following is noted: rat, single i.v. bolus in DMSO; propofol 5 mg/kg, CT8 10 mg/kg.
Series [9] is described as follows: in vivo. Conditions: male, Sprague-Dawley, rat, whole blood, iv.

In the case of `CC(C)c1cccc(C(C)C)c1O` [Propofol, 2,6-diisopropylphenol], the “Percent Inhibition, agonist site” value was “No significant inhibition” in series [1] and 12.48% in series [1] (listed as propofol). For the same molecule, the results for the “Percent Inhibition, alpha 2 site” value in series [2] and in [2] (listed as propofol) were “No significant inhibition” and −15.58%, respectively. In addition, the figures for the “Percent Inhibition, alpha 1 site” value in series [3] and in [3] (listed as propofol) were “No significant inhibition” and −14.31%, respectively. Moreover, the “Percent Inhibition, alpha 6 site” value in series [4] is “No significant inhibition”; in series [4] (listed as propofol), −0.89%. Further, in series [5] (increasing concentration, Hill plots, read-out: GABAA CI Channel Binding (IC50)), the half-inhibitory concentration (IC50) (commonly the concentration needed to halve the response being measured) was 4.86 µM. For the same molecule, the “Percent Inhibition, chloride channel” value in [5] was “only inhibited the binding of TBOB”; in [5] (listed as propofol) it was 117.52%. Besides, the “Time to Awakening (h) [mean ± SD, (N)]” value in series [6] (dose 5.61 μmol/kg) is 0.000 ± 0.000, (5) h; in series [6] (dose 28.05 μmol/kg), 0.346 ± 0.149, (4) h and 0.350 ± 0.228 (5) h; in series [6] (dose 56.09 μmol/kg), 0.600 ± 0.000, (1) h. Further, the “time rats were asleep at LD10” value in [6] (dose = LD10) is 0.35 h. In addition, the “Mortality (%)” value in [7] (dose 5.609469 μmol/kg) was determined as 0%; in series [7] (dose 28.04734 μmol/kg) it was 10%; in series [7] (dose 56.09469 μmol/kg) it was 80%; in [7] (dose 112.1894 μmol/kg), 100%. In addition, in [7] (drugs in DMSO), the “calculated LD10” value is 28 µmol/kg. Further, the “V1” value in [8] was 15.0 L/kg. Moreover, the “V2” value in series [8] stood at 58.0 L/kg. Besides, the Vd – broadly, a proportionality between amount in the body and measured concentration, not a real space – in series [9] is 73 L/kg. Besides, in series [9], the clearance (in general, a measure of how efficiently the substance is removed, as volume per time) is 195 mL/min/kg.
